From publication PMC4542628, “Lys39-Lysophosphatidate Carbonyl Oxygen Interaction Locks LPA1 N-terminal Cap to the Orthosteric Site and partners Arg124 During Receptor Activation” (Scientific Reports, 2015)

Columns and labels:
wildtype LPA1 = target: T1, wildtype LPA1 (Homo sapiens, UniProt Q92633); experiment: Intracellular calcium mobilization in B103 cells expressing wild-type LPA1; assay type: cell-based
T1 construct: expressed in transfected cells; host or cells: B103 rat neuroblastoma cells (lack LPA response), electroporated
From the text: (§1) PCXN2.1-LPA1, an expression vector for human LPA1, was kindly provided by Dr. T. Shimizu (NCGM, Tokyo) (40). The mutants of LPA1 (Lys39Ala, Arg115Ala, Arg124Ala, Asp191Ala and Lys294Ala) were generated by a two-step PCR. The cDNA of the 5′ portion of LPA1 was amplified by PCR using a forward primer containing XhoI site and reverse primers containing the sequence encoding the mutated amino acids. The 3′ portion was also amplified with forward primers containing the mutated sequence and a reverse primer containing NotI and BglII sites. All cDNAs of the LPA1 variants were amplified using a mixture of the two PCR products together with the XhoI and NotI-containing primers. The resulting 1.0 KB products were cloned into a pCRII-Topo vector for sequence analysis. The cDNA of LPA1 mutants were cut out from pCRII-Topo by XhoI and NotI, and ligated into the XhoI/NotI sites of pCAGGS-HA (41), to generate pCAGGS-HA-LPA1 mutants.
(§2) B103 rat neuroblastoma cells that lack LPA response were cultured in DMEM containing 10% fetal bovine serum at 37 °C in a 5% CO2 atmosphere. […] After 30 min, 20 μl of the LPA species at defined concentration was added followed by an immediate recording of the fluorescence using the Functional Drug Screening System/μCell (Hamamatsu Photonics K.K., Hamamatsu city, Japan). The fluorescence intensity was described as fura-2 ratio (tested value/basal value) or fold induction. […]

LPA1 = test system: LPA1; design: method as in earlier work; conditions: acting on LPA1; ref 31 (Williams et al.); cited from earlier work
LPA1 K7.36A mutant = target: T2, LPA1 K7.36A mutant (Homo sapiens, UniProt Q92633, K294A); experiment: Intracellular calcium mobilization in B103 cells expressing K7.36A LPA1 mutant; assay type: cell-based; conditions: at the highest concentration tested
T2 construct: expressed in transfected cells; host or cells: B103 rat neuroblastoma cells, electroporated with pCAGGS-HA-LPA1 mutant
From the text: as §1, §2

T1 sequence (Q92633 whole entry): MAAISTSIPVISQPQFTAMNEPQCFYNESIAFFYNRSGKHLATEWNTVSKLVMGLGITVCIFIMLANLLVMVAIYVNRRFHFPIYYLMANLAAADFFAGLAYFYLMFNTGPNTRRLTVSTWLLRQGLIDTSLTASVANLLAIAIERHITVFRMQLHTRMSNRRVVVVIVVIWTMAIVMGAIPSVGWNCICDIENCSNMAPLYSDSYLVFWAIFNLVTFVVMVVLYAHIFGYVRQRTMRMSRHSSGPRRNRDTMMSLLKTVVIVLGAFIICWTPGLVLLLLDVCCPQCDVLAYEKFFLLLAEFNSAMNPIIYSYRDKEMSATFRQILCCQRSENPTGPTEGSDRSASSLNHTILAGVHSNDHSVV
T2 sequence (Q92633 whole entry K294A): as the sequence (Q92633 whole entry) above, with K294A counted along it

Molecule: alkyl glycerol phosphate 18:1 [AGP (18:1)]
- potency compared with LPA (18:1), dose-response curve (wildtype LPA1): right-shift in the dose-response curve
- EC50 (LPA1): 1500 nM

Molecule: CCCCC/C=C\C/C=C\C/C=C\C/C=C\CCCC(=O)OC[C@@H](O)COP(=O)(O)O.N [LPA 20:4, 1-arachidonoyl-2-hydroxy-sn-glycero-3-phosphate (ammonium salt)]
- intracellular calcium mobilization, Emax levels of the wildtype (LPA1 K7.36A mutant): ≈ 60%
